Test results taken from US20260131107A1, “CATHETERS” (ConvaTec Limited, priority 2023, published 2026).

Experiments:
[1] = test system: ESBL Producing Klebsiella pneumoniae NCTC 13465; assay: Direct inoculation method (Assessment 6a); type: cell-based; conditions: 250 ppm solution
Protocol: (§1) Representative colonies from an 18-24 hour challenge culture plate were dispersed in a 500 µl aliquot of maximum recovery diluent (MRD) to obtain an optical density (OD540 nm) equivalent to approximately I×lO^8 CFU/ml. This was diluted to obtain a working concentration of I×lO^7 CFU/ml. A quantitative count was performed to confirm the inoculum level.
(§2) The bacteria tested were Escherichia coli NCIMB 14067, ESBL Producing Klebsiella pneumoniae NCTC 13465, Enterococcus faecalis NCTC 12201, Proteus mirabilis NCTC 9559 and Pseudomonas aeruginosa NCIMB 8626, which each are commonly associated with causing CAUTI.
(§3) 5 pl of the I×lO^7 CFU/ml challenge suspension was added to a 500 pl aliquot of hypochlorous acid solution (250 ppm) (n=3 per challenge organism, per timepoint) and mixed to form a suspension.
(§4) Following 10 seconds, 1 minute and 2 minutes from adding the challenge suspension to the aliquot of hypochlorous acid, samples were taken from the suspension to establish the number of challenge organisms remaining. This was performed by removing 100 pl volumes and transferring to 0.9 ml and 9.9 ml DENB (for 1:10 and 1:100 dilutions respectively). Appropriate serial dilutions were performed and inoculated onto pre-dried Tryptone Soy Agar (TSA) plates to establish the numbers remaining.

[2] = test system: Enterococcus faecalis NCTC 12201; assay: Direct inoculation method (Assessment 6a); type: cell-based; conditions: 250 ppm solution
Protocol: as §1, §2, §3, §4

[3] = test system: Escherichia coli NCIMB 14067; assay: Direct inoculation method (Assessment 6a); type: cell-based; conditions: 250 ppm solution
Protocol: as §1, §2, §3, §4

[4] = test system: Proteus mirabilis NCTC 9559; assay: Direct inoculation method (Assessment 6a); type: cell-based; conditions: 250 ppm solution
Protocol: as §1, §2, §3, §4

[5] = test system: Pseudomonas aeruginosa NCIMB 8626; assay: Direct inoculation method (Assessment 6a); type: cell-based; conditions: 250 ppm solution
Protocol: as §1, §2, §3, §4

[6] = test system: Escherichia coli NCIMB 14067; assay: Antimicrobial activity along the catheter method (Assessment 6b); type: cell-based; conditions: concentration 300 ppm or above; each section of GentleCath Air 2.0 CH14 catheter; two minutes
Protocol: Representative colonies from an 18-24 hour challenge culture plate were dispersed in maximum recovery diluent (MRD) to obtain an optical density (OD540 nm) equivalent to approximately I×lO^8 CFU/ml. This was diluted to obtain a working concentration of I×lO^4 CFU/ml. A quantitative count was performed to confirm the inoculum level.
The bacteria tested were Escherichia coli NCIMB 14067 which are bacteria that are commonly associated with causing CAUTI.
GentleCath Air 2.0 CH14 (manufactured by ConvaTec Inc.) intermittent urinary catheters were used for the assessment. Each catheter was prepared within a laminar flow cabinet to maintain sterility. In the assessment, each catheter was hydrated with a 100, 150, 200, 300, 675 or 1000 ppm hypochlorous acid solution. A further catheter was hydrated with sterile deionised water (SDW) and was used as a control.
Enough samples were prepared for n=3 and controls for n=1 per challenge organism.
Each catheter was hydrated with a hypochlorous solution as described above, as per the IFU, and removed from its packaging.
Each catheter was cut into three sections, each section having a length of 2.5 cm, beginning at the tip of the catheter (section 1) and ending proximal to the handle of the catheter (section 3). […]

E. coli NCIMB 14067 [7] = assay: Antimicrobial residual test (Assessment 6c); type: cell-based, Escherichia coli; conditions: for Antimicrobial residual test result (growth of challenge organism): 40 µl on sterile filter
Protocol: (§5) Representative colonies from an 18-24 hour challenge culture plate were dispersed in maximum recovery diluent (MRD) to obtain an optical density (OD540 nm) equivalent to approximately I×lO^8 CFU/ml. This was diluted to obtain a working concentration of I×lO^6 CFU/ml. A quantitative count was performed to confirm the inoculum level. The bacteria tested were Escherichia coli NCIMB 14067, Enterococcus faecalis NCTC 12201, which each are commonly associated with causing CAUTI. 40 pl of a hypochlorous acid solution (250 ppm), representative of the amount of hypochlorous acid that is left on a catheter following hydration, was placed onto sterile filters. A 40 pl volume of maximum recovery diluent (MRD) was placed onto a further sterile filter as a negative control. A 40 pl volume of approximate 2% […] was placed onto a further sterile filter as a positive control. The filters used were Grade 427 mm Whatman Filters. Following timepoints of 0 minutes, 30 minutes and 4 hours from adding the hypochlorous acid solutions and control to respective sterile filters, each sterile filter was then inoculated with lOpl of IxlO^6 CFU/ml challenge suspension of bacteria, prepared as described above, and left undisturbed for two minutes (to represent approximate urination time). Following the two minutes, the filters were homogenised in Dey-Engley Neutralising Broth (DENB) and appropriate serial dilutions were performed and inoculated onto pre-dried Tryptone Soy Agar (TSA) plates to establish the bacteria numbers remaining.

E. faecalis NCTC 12201 = assay: Antimicrobial residual test (Assessment 6c); type: cell-based, Enterococcus faecalis; conditions: for Antimicrobial residual test result (growth of challenge organism): 40 µl on sterile filter
Protocol: as §5

E. coli NCIMB 14067 [8] = assay: Antimicrobial efficacy of very low hypochlorous acid concentrations, suspension test (Further Assessment 2); type: cell-based, Escherichia coli; conditions: for bacterial recovery: 10 ppm solution; for numbers of bacteria recovered: after 30 seconds
Protocol: The antimicrobial efficacy of hypochlorous acid was tested at even lower concentrations (10, 25, and 50 ppm) against the challenging organism E. coli NCIMB 14067. The representative colonies of E. coli NCIMB 14067 were dispersed in maximum recovery diluent (MRD) to obtain an optical density (OD540 nm) equivalent to approximately […]. A quantitative plate count was performed on this suspension to determine the total number of viable organisms inoculated. A new suspension was prepared for each concentration tested. A 1000 ppm hypochlorous acid solution was diluted in sterile deionised water to provide the respective 10, 25 and 50 ppm hypochlorous acid solutions. The hypochlorous acid samples were aliquoted into 9 mL volumes and 1 mL of the challenge organism suspension was added and mixed (the final number of bacteria present is now approximately 1×10^6 CFU/mL). Following 5, 30 seconds, 1, 2, and 5 minutes, 100 pL volumes were sampled and transferred to 0.9 mL and 9.9 mL of Dey-Engley Neutralising Broth (DENB) (to provide a 1:10 and 1:100 dilution respectively), and total viable counts were performed to establish the amount present. The plates were left to dry before being inverted and incubated at 35+3° C. for at least 48 hours. A negative control was also tested whereby 1 mL of the challenge organism suspension was added to 9 mL of MRD and tested as previously described. Following the incubation period, the number of CFUs were counted on the most appropriate dilution for each sample i.e. between 25-250 CFU/plate.

[9] = test system: Enterococcus faecalis NCTC 12201; assay: In vitro direct inoculation method, sulfanilamide comparison (Further Assessment 3); type: cell-based
Protocol: (§6) An in vitro direct inoculation method was used to assess the antimicrobial activity of sulfanilamide in an intermittent urinary catheter scenario against […] Escherichia coli NCIMB 14067 and […] Enterococcus faecalis NCTC 12201; two microorganisms associated with urinary tract infections. Sulfanilamide concentrations of 0.1% and 0.01% were tested and bacterial levels monitored over a period of 5 minutes. Representative colonies of the challenge microorganisms, from an 18-24 hour challenge culture plate, were dispersed in MRD to obtain an optical density (OD540 nm) equivalent to approximately 1×10^8 CFU/mL. This was diluted to obtain a working concentration of 1×10^6 CFU/mL. A quantitative count was performed to confirm the inoculum level. The challenge organism was prepared in MRD to a concentration of approximately 1×10^6 CFU/mL. This suspension was added in a 1 mL volume to 9 mL of sample (n=3 per sample, n=2 per control) in a sterile 30 mL universal and pipetted up and down to mix. Following each testing period, 5 seconds, 30 seconds, 1 minute, 2 minutes and 5 minutes, 100 μL of the test solution was transferred to 0.9 mL and 9.9 mL volumes of DENB (1:10 and 1:100 dilutions, respectively). The most appropriate dilutions were inoculated (100 pL) onto duplicate pre-dried (tryptone soy agar) TSA plates and the inoculum spread using separate sterile L-shaped spreaders (for 10-1 and 10-2 dilutions, 0.5 mL were placed onto duplicate plates). The TSA plates were allowed to dry before being inverted and incubated at 35±3° C. for at least 48 hours. Following the incubation period, the number of bacterial colonies were counted on the most appropriate dilution for each dressing type i.e. between 25-250 CFU/plate. The samples tested were: 0.1% sulfanilamide in sterile deionised water (SDW); 0.01% sulfanilamide in SDW; 100 ppm hypochlorous acid in SDW; and a SDW control.

[10] = test system: Escherichia coli NCIMB 14067; assay: as above; type: cell-based
Protocol: as §6

[11] = inoculated at 0 hour (plus 2 minutes)
[12] = inoculated at 30 minutes (plus 2 minutes)
[13] = inoculated at 4 hours (plus 2 minutes)
[14] = 250 ppm solution on sterile filter
[15] = 100 ppm in SDW, within 5 seconds and for the remaining testing period (to 5 minutes)
[16] = 0.1% and 0.01% in SDW, any timepoint from 5 seconds to 5 minutes

In the case of `OCl` [hypochlorous acid], the “Bacterial numbers reduced to the detection limit (>5 log reduction)” value ([1]; 10 seconds) is reported as “Yes”, the “Bacterial numbers reduced to the detection limit (>5 log reduction)” value ([1]; 1 minute) is reported as “Yes” and the “Bacterial numbers reduced to the detection limit (>5 log reduction)” value ([1]; 2 minutes) is reported as “Yes”. For the same compound, the “Bacterial numbers reduced to the detection limit (>5 log reduction)” value ([2]; 10 seconds) was “Yes”, the “Bacterial numbers reduced to the detection limit (>5 log reduction)” value ([2]; 1 minute) was “Yes” and the “Bacterial numbers reduced to the detection limit (>5 log reduction)” value ([2]; 2 minutes) was “Yes”. For the same compound, the “Bacterial numbers reduced to the detection limit (>5 log reduction)” value ([3]; 10 seconds) was “Yes”, the “Bacterial numbers reduced to the detection limit (>5 log reduction)” value ([3]; 1 minute) was “Yes” and the “Bacterial numbers reduced to the detection limit (>5 log reduction)” value ([3]; 2 minutes) was “Yes”. The “Bacterial numbers reduced to the detection limit (>5 log reduction)” value ([4]; 10 seconds) was “Yes”, the “Bacterial numbers reduced to the detection limit (>5 log reduction)” value ([4]; 1 minute) was “Yes” and the “Bacterial numbers reduced to the detection limit (>5 log reduction)” value ([4]; 2 minutes) was “Yes”. For the same compound, the “Bacterial numbers reduced to the detection limit (>5 log reduction)” value ([5]; 10 seconds) was “Yes”, the “Bacterial numbers reduced to the detection limit (>5 log reduction)” value ([5]; 1 minute) was “Yes” and the “Bacterial numbers reduced to the detection limit (>5 log reduction)” value ([5]; 2 minutes) was “Yes”. The bacterial cell death [6] was “greater than 93%”, the “Antimicrobial residual test result (growth of challenge organism)” value (“Antimicrobial residual test result” below) (E. coli NCIMB 14067 [7]; [11]) was “No growth” and the “Antimicrobial residual test result” value (E. coli NCIMB 14067 [7]; [12]) was “Growth”. For the same compound, the “Antimicrobial residual test result” value (E. coli NCIMB 14067 [7]; [13]) was “Growth”, the “time by which antimicrobial activity was exhausted” value (E. coli NCIMB 14067 [7]; [14]) was no more than 30 min and the “Antimicrobial residual test result” value (E. faecalis NCTC 12201; [11]) was “No growth”. For the same compound, the “Antimicrobial residual test result” value (E. faecalis NCTC 12201; [12]) was “Growth”, the “Antimicrobial residual test result” value (E. faecalis NCTC 12201; [13]) was “Growth” and the “time by which antimicrobial activity was exhausted” value (E. faecalis NCTC 12201; [14]) was no more than 30 min. The bacterial recovery (E. coli NCIMB 14067 [8]; 1 minute timepoint) was “undetectable levels”, the bacterial recovery (E. coli NCIMB 14067 [8]; at 30 seconds) was “over 10 CFU/mL” and the “numbers of bacteria recovered” value (E. coli NCIMB 14067 [8]; 25 ppm solution) was “undetectable numbers of bacteria”. The “numbers of bacteria recovered” value (E. coli NCIMB 14067 [8]; 50 ppm solution) was “undetectable numbers of bacteria”, the challenge organism numbers [9, 15] was “undetectable numbers” and the challenge organism numbers [10, 15] was “undetectable numbers”.

In the case of `Nc1ccc(S(N)(=O)=O)cc1` [sulfanilamide, reference compound], the “challenge organism numbers compared to the control” value [9, 16] is reported as “no decrease in challenge organism numbers” and the “challenge organism numbers compared to the control” value [10, 16] is reported as “no decrease in challenge organism numbers”.
